# Test results: US7897637B2, “Methods of using flavonoids to enhance memory” (The Salk Institute for Biological Studies, priority 2006, dated 2011)
# “Also recorded” adds a separate entry of the source.
# Test system: cAMP
# Assay: cAMP levels in hippocampal slices (Scintillation Proximity Assay)
# Type: cell-based
# Protocol: Hippocampal slices were treated with fisetin using the conditions where maximal stimulation of CREB phosphorylation and facilitation of LTP were observed. Briefly, hippocampal slices in ACSF were treated with 1 μM fisetin for 5 minutes (fisetin) or 3 μM rolipram for 30 minutes (rolipram) and then either immediately frozen or treated with […] forskolin for an additional 15 minutes (rolipram+forskolin; fisetin+forskolin) prior to freezing. Additional slices were treated only with 5 μM forskolin for 15 minutes (forskolin). Forskolin, an activator of adenylyl cyclase, and rolipram were used as positive controls. The levels of cAMP in the slices were measured using a Scintillation Proximity Assay and presented as pmole/mg protein±S.D.
structure (smiles),measurement,setting,value
"O=c1c(O)c(-c2ccc(O)c(O)c2)oc2cc(O)ccc12 [fisetin, 3,3′,4′,7-tetrahydroxyflavone]",effect on cAMP levels by itself,"1 μM fisetin 5 minutes, 3 μM rolipram 30 minutes",no effect; also recorded: does not increase cAMP levels
same,potentiation of the effect of forskolin on cAMP levels,then 5 μM forskolin for 15 minutes,nor did it potentiate
